Reference: patent publication US9944602B2, “Piperidinone herbicides” (E. I. DU PONT DE NEMOURS AND COMPANY, priority 2014, dated 2018)

What was measured:
Type in all cases: in vivo
[1] = test system: barnyardgrass (Echinochloa crus-galli); test: Test A preemergence barnyardgrass; details: 0 to 100 scale
In short: (§1)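 Both application timings used the same loam-and-sand medium and the same solvent–surfactant formulation. Postemergence plants were 2–10 cm at the one- to two-leaf stage. After roughly 10 d of greenhouse growth, injury was judged visually against untreated plants, where 0 is no effect and 100 complete control.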

kochia (Kochia scoparia) [2] = test: Test A preemergence kochia; details: 0 to 100 scale, 0 no effect, 100 complete control
In short: as §1

[3] = test system: ragweed (common ragweed, Ambrosia elatior); test: Test A preemergence ragweed; details: 0 to 100 scale, 0 no effect, 100 complete control
In short: as §1

[4] = test system: ryegrass, Italian (Italian ryegrass, Lolium multiflorum); test: Test A preemergence ryegrass, Italian; details: 0 to 100 scale, 0 no effect, 100 complete control
In short: as §1

[5] = test system: foxtail, giant (giant foxtail, Setaria faberii); test: Test A preemergence foxtail, giant; details: 0 to 100 scale, 0 no effect, 100 complete control
In short: as §1

[6] = test system: pigweed (Amaranthus retroflexus); test: Test A preemergence pigweed; details: 0 to 100 scale, 0 no effect, 100 complete control
In short: as §1

[7] = test system: barnyardgrass (Echinochloa crus-galli); test: Test A postemergence barnyardgrass; details: 0 to 100 scale, 0 is no effect, 100 is complete control
In short: as §1

kochia (Kochia scoparia) [8] = test: Test A postemergence kochia; details: 0 to 100 scale, 0 is no effect, 100 is complete control
In short: as §1

[9] = test system: ragweed (common ragweed, Ambrosia elatior); test: Test A postemergence ragweed; details: 0 to 100 scale, 0 is no effect, 100 is complete control
In short: as §1

[10] = test system: ryegrass, Italian (Italian ryegrass, Lolium multiflorum); test: Test A postemergence ryegrass, Italian; details: 0 to 100 scale, 0 is no effect, 100 is complete control
In short: as §1

[11] = test system: foxtail, giant (giant foxtail, Setaria faberii); test: Test A postemergence foxtail, giant; details: 0 to 100 scale, 0 is no effect, 100 is complete control
In short: as §1

[12] = test system: pigweed (Amaranthus retroflexus); test: Test A postemergence pigweed; details: 0 to 100 scale, 0 is no effect, 100 is complete control
In short: as §1

[13] = test system: wheat (Triticum aestivum); test: Test A postemergence wheat; details: 0 to 100 scale, 0 is no effect, 100 is complete control
In short: as §1

corn (Zea mays) = test: Test A postemergence corn; details: 0 to 100 scale, 0 is no effect, 100 is complete control
In short: as §1

[14] = test system: blackgrass (Alopecurus myosuroides); test: Test A postemergence blackgrass; details: 0 to 100 scale, 0 is no effect, 100 is complete control
In short: as §1

[15] = test system: galium (catchweed bedstraw, Galium aparine); test: Test A postemergence galium; details: 0 to 100 scale, 0 is no effect, 100 is complete control
In short: as §1

rice (Oryza sativa) = test: Test C flooded paddy test rice; details: Table C, Flood, scale 0 to 100
Source text: (§2) Plant species in the flooded paddy test consisted of rice (Oryza sativa), sedge, umbrella (small-flower umbrella sedge, Cyperus difformis), ducksalad (Heteranthera limosa), and barnyardgrass (Echinochloa crus-galli) grown to the 2-leaf stage for testing. At time of treatment, test pots were flooded to 3 cm above the soil surface, treated by application of test compounds directly to the paddy water, and then maintained at that water depth for the duration of the test. Treated plants and controls were maintained in a greenhouse for 13 to 15 d, after which time all species were compared to controls and visually evaluated. Plant response ratings, summarized in Table C, are based on a scale of 0 to 100 where 0 is no effect and 100 is complete control. A dash (-) response means no test result.

[16] = test system: sedge, umbrella (small-flower umbrella sedge, Cyperus difformis); test: Test C flooded paddy test sedge, umbrella; details: Table C, Flood, scale 0 to 100
Source text: as §2

[17] = test system: ducksalad (Heteranthera limosa); test: Test C flooded paddy test ducksalad; details: Table C, Flood, scale 0 to 100
Source text: as §2

[18] = test system: barnyardgrass (Echinochloa crus-galli); test: Test C flooded paddy test barnyardgrass; details: Table C, Flood, scale 0 to 100
Source text: as §2

For `O=C1NCCC(c2ccc(C(F)(F)F)cc2)C1C(=O)Nc1ccccc1C(F)(F)F` (racemic) [Compound 12], the “Barnyardgrass plant response rating” value ([1]; 125 g ai/ha, 0 no effect, 100 complete control) was 20, the “Plant response rating, Barnyardgrass” value ([1]; 500 g ai/ha, 0 is no effect, 100 is complete control) was 70 and the “Kochia plant response rating” value (kochia (Kochia scoparia) [2]; 125 g ai/ha) was 0. For the same compound, the “Kochia plant response rating” value (kochia (Kochia scoparia) [2]; 500 g ai/ha) was 0, the “Ragweed plant response rating” value ([3]; 125 g ai/ha) was 0 and the “Ragweed plant response rating” value ([3]; 500 g ai/ha) was 0. For the same compound, the “Ryegrass, Italian plant response rating” value ([4]; 125 g ai/ha) was 0, the “Ryegrass, Italian plant response rating” value ([4]; 500 g ai/ha) was 0 and the “Foxtail, Giant plant response rating” value ([5]; 125 g ai/ha) was 20. The “Foxtail, Giant plant response rating” value ([5]; 500 g ai/ha) was 70, the “Pigweed plant response rating” value ([6]; 125 g ai/ha) was 0 and the “Pigweed plant response rating” value ([6]; 500 g ai/ha) was 0. The “Plant response rating, Barnyardgrass” value ([7]; 125 g ai/ha) was 20, the “Plant response rating, Barnyardgrass” value ([7]; 500 g ai/ha) was 60 and the “Plant response rating, Kochia” value (kochia (Kochia scoparia) [8]; 125 g ai/ha) was 0. The “Plant response rating, Kochia” value (kochia (Kochia scoparia) [8]; 500 g ai/ha) was 0, the “Plant response rating, Ragweed” value ([9]; 125 g ai/ha) was 0 and the “Plant response rating, Ragweed” value ([9]; 500 g ai/ha) was 0. The “Plant response rating, Ryegrass, Italian” value ([10]; 125 g ai/ha) was 0, the “Plant response rating, Ryegrass, Italian” value ([10]; 500 g ai/ha) was 0 and the “Plant response rating, Foxtail, Giant” value ([11]; 125 g ai/ha) was 20. For the same compound, the “Plant response rating, Foxtail, Giant” value ([11]; 500 g ai/ha) was 60, the “Plant response rating, Pigweed” value ([12]; 125 g ai/ha) was 0 and the “Plant response rating, Pigweed” value ([12]; 500 g ai/ha) was 0. For the same compound, the “Plant response rating, Wheat” value ([13]; 125 g ai/ha) was 0, the “Plant response rating, Wheat” value ([13]; 500 g ai/ha) was 0 and the “Plant response rating, Corn” value (corn (Zea mays); 125 g ai/ha) was 0. The “Plant response rating, Corn” value (corn (Zea mays); 500 g ai/ha) was 0, the “Plant response rating, Blackgrass” value ([14]; 125 g ai/ha) was 0 and the “Plant response rating, Blackgrass” value ([14]; 500 g ai/ha) was 0. For the same compound, the “Plant response rating, Galium” value ([15]; 125 g ai/ha) was 0, the “Plant response rating, Galium” value ([15]; 500 g ai/ha) was 0 and the Plant response rating (rice (Oryza sativa); 125 g ai/ha) was 0. It also gave a Plant response rating (rice (Oryza sativa); 250 g ai/ha) of 0, a Plant response rating (rice (Oryza sativa); 500 g ai/ha) of 0 and a Plant response rating (rice (Oryza sativa); 1000 g ai/ha) of 0. The Plant response rating ([16]; 125 g ai/ha) was 0, the Plant response rating ([16]; 250 g ai/ha) was 0 and the Plant response rating ([16]; 500 g ai/ha) was 10. For the same compound, the Plant response rating ([16]; 1000 g ai/ha) was 25, the Plant response rating ([17]; 125 g ai/ha) was 0 and the Plant response rating ([17]; 250 g ai/ha) was 35. The Plant response rating ([17]; 500 g ai/ha) was 75, the Plant response rating ([17]; 1000 g ai/ha) was 100 and the Plant response rating ([18]; 125 g ai/ha) was 0. It also gave a Plant response rating ([18]; 250 g ai/ha) of 15, a Plant response rating ([18]; 500 g ai/ha) of 20 and a Plant response rating ([18]; 1000 g ai/ha) of 25.
